Measured values published in ChEMBL document CHEMBL1122204 (J Med Chem, 1982).

Assay: Approximate pKa value of compound was determined
Assay type: physicochemical
Settings: not given

| Approx. pKa | SMILES |
| --- | --- |
| -3.8 | CC/C(=C(\c1ccccc1)c1ccc(OCCn2cccc2)cc1)c1ccccc1 |

Same assay, conditions: read-out: Approx. pKa

| pKa | SMILES |
| --- | --- |
| 11.2 | CC/C(=C(\c1ccccc1)c1ccc(OCCN2CCCCC2)cc1)c1ccccc1 |
| 11.3 | CC/C(=C(\c1ccccc1)c1ccc(OCCN2CCCC2)cc1)c1ccccc1 |
| 11.3 | CC/C(=C(\c1ccccc1)c1ccc(OCCCN2CCCC2)cc1)c1ccccc1 |

Second part, the compound before the results:

| SMILES | pKa |
| --- | --- |
| CC/C(=C(\c1ccccc1)c1ccc(OCCN2CCN(C)CC2)cc1)c1ccccc1 | 9.8 |
| CC/C(=C(\c1ccccc1)c1ccc(OCCN=C(N)N)cc1)c1ccccc1 | 13.7 |
| CC/C(=C(\c1ccccc1)c1ccc(OCCN(C)C)cc1)c1ccccc1 [TAMOXIFEN] | 10.8 |
| CC/C(=C(\c1ccccc1)c1ccc(OCCN(CC)CC)cc1)c1ccccc1 | 10.9 |
| CC/C(=C(\c1ccccc1)c1ccc(OCCN2CCOCC2)cc1)c1ccccc1 | 8.7 |
